Drawing on BindingDB's records for doi:10.1016/s0960-894x(99)00595-8 (Banyu Tsukuba Research Institute In Collaboration With …, 2000), this text covers EC50 for 18 compounds.

The structures appear in SMILES notation. Where only a bound is given, the exact number is not on record here.

Chain of DNA topoisomerase 2-alpha (Homo sapiens) (P11388 whole entry, looked up): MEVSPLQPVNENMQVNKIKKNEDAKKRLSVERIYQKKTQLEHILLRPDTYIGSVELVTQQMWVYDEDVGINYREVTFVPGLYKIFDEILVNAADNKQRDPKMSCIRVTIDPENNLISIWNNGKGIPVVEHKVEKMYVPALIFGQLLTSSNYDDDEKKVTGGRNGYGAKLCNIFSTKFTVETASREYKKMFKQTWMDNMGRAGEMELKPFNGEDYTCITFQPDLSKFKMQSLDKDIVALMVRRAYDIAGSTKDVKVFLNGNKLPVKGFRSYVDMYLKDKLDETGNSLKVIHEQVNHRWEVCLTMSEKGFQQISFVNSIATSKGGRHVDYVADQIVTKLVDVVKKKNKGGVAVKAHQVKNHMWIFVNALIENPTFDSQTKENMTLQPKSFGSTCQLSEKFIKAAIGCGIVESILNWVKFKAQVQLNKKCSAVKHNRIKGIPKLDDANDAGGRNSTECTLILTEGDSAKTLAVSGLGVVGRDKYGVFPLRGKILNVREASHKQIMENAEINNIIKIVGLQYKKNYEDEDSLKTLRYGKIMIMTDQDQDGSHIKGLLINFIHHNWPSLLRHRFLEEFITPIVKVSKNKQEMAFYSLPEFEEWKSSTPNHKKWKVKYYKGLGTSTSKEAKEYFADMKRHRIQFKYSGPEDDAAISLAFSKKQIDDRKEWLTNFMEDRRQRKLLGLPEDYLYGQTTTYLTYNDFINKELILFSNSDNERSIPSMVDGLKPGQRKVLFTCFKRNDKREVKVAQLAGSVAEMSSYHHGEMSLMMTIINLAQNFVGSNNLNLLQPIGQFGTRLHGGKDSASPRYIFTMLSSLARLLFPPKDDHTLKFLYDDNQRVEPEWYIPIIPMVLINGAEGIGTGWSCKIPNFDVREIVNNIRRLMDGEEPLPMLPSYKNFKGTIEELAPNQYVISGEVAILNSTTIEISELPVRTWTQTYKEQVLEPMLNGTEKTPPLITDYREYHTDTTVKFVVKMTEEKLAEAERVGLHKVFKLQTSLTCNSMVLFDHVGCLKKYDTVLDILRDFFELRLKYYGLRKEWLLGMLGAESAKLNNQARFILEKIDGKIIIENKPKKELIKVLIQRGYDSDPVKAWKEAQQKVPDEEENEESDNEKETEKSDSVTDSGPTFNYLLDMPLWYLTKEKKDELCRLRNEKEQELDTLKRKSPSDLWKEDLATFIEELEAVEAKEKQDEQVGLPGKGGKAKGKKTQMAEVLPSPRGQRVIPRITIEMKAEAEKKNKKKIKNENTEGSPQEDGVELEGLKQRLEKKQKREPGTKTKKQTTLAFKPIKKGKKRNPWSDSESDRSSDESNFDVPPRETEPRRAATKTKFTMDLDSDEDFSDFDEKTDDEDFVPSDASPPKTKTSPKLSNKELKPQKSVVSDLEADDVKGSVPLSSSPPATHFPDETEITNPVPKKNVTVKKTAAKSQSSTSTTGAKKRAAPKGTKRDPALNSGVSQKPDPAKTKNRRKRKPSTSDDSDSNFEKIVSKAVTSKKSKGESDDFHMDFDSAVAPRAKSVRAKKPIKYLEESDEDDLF

This assay concerns the target DNA topoisomerase 2-alpha (Homo sapiens) (UniProt P11388). Description: In vitro inhibition of Topoisomerase II-mediated DNA cleavage using supercoiled pBR322 plasmid DNA.
In general, EC50 refers to the concentration needed to bring the measured effect to its halfway point. On to `O=C1c2c(c3c4cc(O)cc(O)c4n(C4OC(CO)C(O)C(O)C4O)c3c3[nH]c4c(O)cc(O)cc4c23)C(=O)N1NC(CO)CO` (stereo not drawn) [1,3,9,11-tetrahydroxy-6-(2-hydroxy-1-hydroxymethylethylamino)-12-(3,4,5-trihydroxy-6-hydroxymethyltetrahydro-2H-2-pyranyl)-6,7,12,13-tetrahydro-5H-indolo[2,3-a]pyrrolo[3,4-c]carbazole-5,7-dione], for which the EC50 is above 50 µM. In the case of `O=C1c2c(c3c4ccc(O)cc4n(C4OC(CO)C(O)C(O)C4O)c3c3[nH]c4c(O)cc(O)cc4c23)C(=O)N1NC(CO)CO` (stereo not drawn) [1,3,10-trihydroxy-6-(2-hydroxy-1-hydroxymethylethylamino)-12-(3,4,5-trihydroxy-6-hydroxymethyltetrahydro-2H-2-pyranyl)-6,7,12,13-tetrahydro-5H-indolo[2,3-a]pyrrolo[3,4-c]carbazole-5,7-dione] it was above 50 µM; in that of `O=C1c2c(c3c4cc(O)ccc4n(C4OC(CO)C(O)C(O)C4O)c3c3[nH]c4c(O)cccc4c23)C(=O)N1NC(CO)CO` (stereo not drawn) [1,9-dihydroxy-6-(2-hydroxy-1-hydroxymethylethylamino)-12-(3,4,5-trihydroxy-6-hydroxymethyltetrahydro-2H-2-pyranyl)-6,7,12,13-tetrahydro-5H-indolo[2,3-a]pyrrolo[3,4-c]carbazole-5,7-dione], above 50 µM; in that of `O=C1c2c(c3c4cccc(O)c4n(C4OC(CO)C(O)C(O)C4O)c3c3[nH]c4ccc(O)cc4c23)C(=O)N1NC(CO)CO` (stereo not drawn) [1,9-dihydroxy-6-(2-hydroxy-1-hydroxymethylethylamino)-13-(3,4,5-trihydroxy-6-hydroxymethyltetrahydro-2H-2-pyranyl)-6,7,12,13-tetrahydro-5H-indolo[2,3-a]pyrrolo[3,4-c]carbazole-5,7-dione], above 50 µM. In the case of `O=C1c2c(c3c4ccc(O)cc4n(C4OC(CO)C(O)C(O)C4O)c3c3[nH]c4c(O)cccc4c23)C(=O)N1NC(CO)CO` (stereo not drawn) [1,10-dihydroxy-6-(2-hydroxy-1-hydroxymethylethylamino)-12-(3,4,5-trihydroxy-6-hydroxymethyltetrahydro-2H-2-pyranyl)-6,7,12,13-tetrahydro-5H-indolo[2,3-a]pyrrolo[3,4-c]carbazole-5,7-dione] it was above 50 µM; in that of `O=C1c2c(c3c4cccc(O)c4n(C4OC(CO)C(O)C(O)C4O)c3c3[nH]c4cc(O)ccc4c23)C(=O)N1NC(CO)CO` (stereo not drawn) [1,10-dihydroxy-6-(2-hydroxy-1-hydroxymethylethylamino)-13-(3,4,5-trihydroxy-6-hydroxymethyltetrahydro-2H-2-pyranyl)-6,7,12,13-tetrahydro-5H-indolo[2,3-a]pyrrolo[3,4-c]carbazole-5,7-dione], above 50 µM; in that of `O=C1c2c(c3c4cccc(O)c4n(C4OC(CO)C(O)C(O)C4O)c3c3[nH]c4c(O)cccc4c23)C(=O)N1NC(CO)CO` (stereo not drawn) [1,11-dihydroxy-6-(2-hydroxy-1-hydroxymethylethylamino)-12-(3,4,5-trihydroxy-6-hydroxymethyltetrahydro-2H-2-pyranyl)-6,7,12,13-tetrahydro-5H-indolo[2,3-a]pyrrolo[3,4-c]carbazole-5,7-dione], above 50 µM. On to `O=C1c2c(c3c4ccccc4n(C4OC(CO)C(O)C(O)C4O)c3c3[nH]c4c(O)cccc4c23)C(=O)N1NC(CO)CO` (stereo not drawn) [1-hydroxy-6-(2-hydroxy-1-hydroxymethylethylamino)-12-(3,4,5-trihydroxy-6-hydroxymethyltetrahydro-2H-2-pyranyl)-6,7,12,13-tetrahydro-5H-indolo[2,3-a]pyrrolo[3,4-c]carbazole-5,7-dione], for which the EC50 is above 50 µM.

For the compound `O=C1c2c(c3c4cccc(O)c4n(C4OC(CO)C(O)C(O)C4O)c3c3[nH]c4ccccc4c23)C(=O)N1NC(CO)CO` (stereo not drawn) [1-hydroxy-6-(2-hydroxy-1-hydroxymethylethylamino)-13-(3,4,5-trihydroxy-6-hydroxymethyltetrahydro-2H-2-pyranyl)-6,7,12,13-tetrahydro-5H-indolo[2,3-a]pyrrolo[3,4-c]carbazole-5,7-dione], the 50% effective concentration (EC50) is above 50 µM. The result for `O=C1c2c(c3c4cc(O)ccc4n(C4OC(CO)C(O)C(O)C4O)c3c3[nH]c4cc(O)ccc4c23)C(=O)N1NC(CO)CO` (stereo not drawn) [2,9-dihydroxy-6-(2-hydroxy-1-hydroxymethylethylamino)-12-(3,4,5-trihydroxy-6-hydroxymethyltetrahydro-2H-2-pyranyl)-6,7,12,13-tetrahydro-5H-indolo[2,3-a]pyrrolo[3,4-c]carbazole-5,7-dione] reads above 50 µM. In the case of `O=C1c2c(c3c4ccc(O)cc4n(C4OC(CO)C(O)C(O)C4O)c3c3[nH]c4ccc(O)cc4c23)C(=O)N1NC(CO)CO` (stereo not drawn) [2,9-dihydroxy-6-(2-hydroxy-1-hydroxymethylethylamino)-13-(3,4,5-trihydroxy-6-hydroxymethyltetrahydro-2H-2-pyranyl)-6,7,12,13-tetrahydro-5H-indolo[2,3-a]pyrrolo[3,4-c]carbazole-5,7-dione] it was above 50 µM; in that of `O=C1c2c(c3c4ccc(O)cc4n(C4OC(CO)C(O)C(O)C4O)c3c3[nH]c4cc(O)ccc4c23)C(=O)N1NC(CO)CO` (stereo not drawn) [2,10-dihydroxy-6-(2-hydroxy-1-hydroxymethylethylamino)-12-(3,4,5-trihydroxy-6-hydroxymethyltetrahydro-2H-2-pyranyl)-6,7,12,13-tetrahydro-5H-indolo[2,3-a]pyrrolo[3,4-c]carbazole-5,7-dione], above 50 µM. Take `O=C1c2c(c3c4ccccc4n(C4OC(CO)C(O)C(O)C4O)c3c3[nH]c4cc(O)ccc4c23)C(=O)N1NC(CO)CO` (stereo not drawn) [2-hydroxy-6-(2-hydroxy-1-hydroxymethylethylamino)-12-(3,4,5-trihydroxy-6-hydroxymethyltetrahydro-2H-2-pyranyl)-6,7,12,13-tetrahydro-5H-indolo[2,3-a]pyrrolo[3,4-c]carbazole-5,7-dione]: the half-maximal effective concentration (EC50) was above 50 µM. `O=C1c2c(c3c4ccc(O)cc4n(C4OC(CO)C(O)C(O)C4O)c3c3[nH]c4ccccc4c23)C(=O)N1NC(CO)CO` (stereo not drawn) [2-hydroxy-6-(2-hydroxy-1-hydroxymethylethylamino)-13-(3,4,5-trihydroxy-6-hydroxymethyltetrahydro-2H-2-pyranyl)-6,7,12,13-tetrahydro-5H-indolo[2,3-a]pyrrolo[3,4-c]carbazole-5,7-dione] came in with an EC50 above 50 µM. In the case of `O=C1c2c(c3c4cc(O)ccc4n(C4OC(CO)C(O)C(O)C4O)c3c3[nH]c4ccc(O)cc4c23)C(=O)N1NC(CO)CO` (stereo not drawn) [3,9-dihydroxy-6-(2-hydroxy-1-hydroxymethylethylamino)-12-(3,4,5-trihydroxy-6-hydroxymethyltetrahydro-2H-2-pyranyl)-6,7,12,13-tetrahydro-5H-indolo[2,3-a]pyrrolo[3,4-c]carbazole-5,7-dione] it was above 50 µM; in that of `O=C1c2c(c3c4ccccc4n(C4OC(CO)C(O)C(O)C4O)c3c3[nH]c4ccc(O)cc4c23)C(=O)N1NC(CO)CO` (stereo not drawn) [3-hydroxy-6-(2-hydroxy-1-hydroxymethylethylamino)-12-(3,4,5-trihydroxy-6-hydroxymethyltetrahydro-2H-2-pyranyl)-6,7,12,13-tetrahydro-5H-indolo[2,3-a]pyrrolo[3,4-c]carbazole-5,7-dione], above 50 µM. As to `O=C1c2c(c3c4cc(O)ccc4n(C4OC(CO)C(O)C(O)C4O)c3c3[nH]c4ccccc4c23)C(=O)N1NC(CO)CO` (stereo not drawn) [3-hydroxy-6-(2-hydroxy-1-hydroxymethylethylamino)-13-(3,4,5-trihydroxy-6-hydroxymethyltetrahydro-2H-2-pyranyl)-6,7,12,13-tetrahydro-5H-indolo[2,3-a]pyrrolo[3,4-c]carbazole-5,7-dione], the concentration giving a half-maximal response (EC50) is above 50 µM. In turn, `O=C1c2c(c3c4ccccc4n(C4OC(CO)C(O)C(O)C4O)c3c3[nH]c4cccc(O)c4c23)C(=O)N1NC(CO)CO` (stereo not drawn) [4-hydroxy-6-(2-hydroxy-1-hydroxymethylethylamino)-12-(3,4,5-trihydroxy-6-hydroxymethyltetrahydro-2H-2-pyranyl)-6,7,12,13-tetrahydro-5H-indolo[2,3-a]pyrrolo[3,4-c]carbazole-5,7-dione] yielded an EC50 above 50 µM.
